Results as given in patent US20260001928A1 (CORTERIA PHARMACEUTICALS, priority 2022, published 2026).
*1 amine or outer side, *2 acyl side, *3 side chain or, on linkers, in order; H or OH if unused. Where a SMILES comes first, the peptide text is derived from it. Side-chain parts run from the residue outwards. [ ]: non-standard residue; d: D form. The star is where a group is joined. C20 diacid = O=C(O)CCCCCCCCCCCCCCCCCCC(=O)*; C16 diacid = O=C(O)CCCCCCCCCCCCCCC(=O)*; γGlu = O=C(O)[C@H](CCC(=O)[*:2])N[*:1]; NMeI = CC[C@H](C)[C@H](NC)C(=O)O; Nva = CCC[C@H](N)C(=O)O; AEEA = NCCOCCOCC(=O)O; Aib = CC(C)(N)C(=O)O

Key:
human CRF2a receptor = target: T1, human CRF2a receptor (Homo sapiens, UniProt Q13324); assay: Activity at human CRF2a receptor, cAMP functional assay in TeloHEAC cells; type: cell-based; conditions: TeloHEAC cells stably expressing human CRF2a receptor, relative to urocortin 2 (100 nM = 100%)
T1 construct: expressed in transfected cells; host or cells: TeloHEAC cells
T1 sequence (Q13324 1-411): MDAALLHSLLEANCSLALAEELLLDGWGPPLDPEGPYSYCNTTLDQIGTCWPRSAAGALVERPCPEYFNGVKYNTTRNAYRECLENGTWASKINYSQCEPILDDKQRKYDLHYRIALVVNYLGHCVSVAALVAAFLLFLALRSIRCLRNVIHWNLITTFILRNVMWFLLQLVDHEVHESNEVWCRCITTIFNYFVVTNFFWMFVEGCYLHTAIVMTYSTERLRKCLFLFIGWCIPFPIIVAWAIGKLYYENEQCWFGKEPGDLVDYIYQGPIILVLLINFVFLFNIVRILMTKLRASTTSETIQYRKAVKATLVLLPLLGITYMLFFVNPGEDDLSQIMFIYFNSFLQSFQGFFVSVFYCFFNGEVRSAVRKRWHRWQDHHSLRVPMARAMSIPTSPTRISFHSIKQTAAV
Procedure, shortened: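 cAMP accumulation was measured by HTRF 665/620 nm ratio after 30 min at 37° C compound exposure (16 twofold dilutions) of CRF2a-expressing TeloHEAC cells, 10000/well, in HEPES-buffered HBSS plus IBMX. Activity was normalised to urocortin 2 at 100 nM (100%), and EC50 was the concentration giving half-maximal activation.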

CFR1R receptor = target: T2, CFR1R receptor (Homo sapiens, UniProt P34998); assay: Activity at anti-target CFR1R receptor, cAMP assay in CRF1R-overexpression CHO-K1 cells; type: cell-based; conditions: 100% = Sauvagine at 100 nM; for EC50: cAMP
T2 construct: host or cells: CHO-K1 (clone 2)
T2 sequence (P34998 24-415): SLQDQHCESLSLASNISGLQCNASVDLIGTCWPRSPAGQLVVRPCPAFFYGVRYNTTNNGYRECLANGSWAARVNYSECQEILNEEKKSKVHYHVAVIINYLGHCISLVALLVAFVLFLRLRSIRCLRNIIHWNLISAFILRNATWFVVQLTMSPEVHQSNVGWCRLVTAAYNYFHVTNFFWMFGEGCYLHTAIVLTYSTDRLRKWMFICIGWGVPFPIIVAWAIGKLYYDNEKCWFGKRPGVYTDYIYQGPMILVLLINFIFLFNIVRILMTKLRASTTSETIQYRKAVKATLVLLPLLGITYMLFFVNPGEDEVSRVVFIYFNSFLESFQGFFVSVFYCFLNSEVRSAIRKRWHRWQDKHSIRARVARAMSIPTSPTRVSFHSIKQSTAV
Procedure, shortened: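 The method mirrors that used with TeloHAEC cells. Here, thawed clone 2 cells seeded at 4000 cells/well are tested, and 100 nM Sauvagine sets the top of the activation scale.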

Sprague Dawley rats = assay: Effect on systolic blood pressure, telemetry in Sprague Dawley rats; type: in vivo, rat; conditions: 0.1 mg/kg SC; for Systolic blood pressure (Mean) % change from baseline, 8 h / Systolic blood pressure (Mean) % change from baseline, 12 h / Systolic blood pressure (Mean) % change from baseline, 24 h: n=2; for Duration of action: last time point with an effect on BP still observed
Method: The effect of the compounds on systolic blood pressure was determined in telemetry studies in Sprague Dawley rats at a dosage of 0.1 mg/kg SC.
The rats were previously implanted with a telemetry device (DSI, Saint-Paul, USA, HD-S10, HD-S11 or HD S21) and allowed to recover for a minimum period of 2 weeks before treatment with vehicle or the different peptides. Blood pressure (BP) was recorded through a catheter inserted into the abdominal aorta. The device body was placed in the abdomen. The animals were allowed to recover from surgery for at least 10 days before the first administration of test drug or vehicle.
The chronically instrumented rats of the telemetry studies were individually housed immediately after surgery and then housed in pairs with a non-instrumented companion after recovery.
Systolic blood pressure was recorded for one hour before treatment (basal period). Thereafter, the subcutaneous administration of the test compound or its vehicle was performed, under continuous recording of the signal up to 48 hours, analysed and expressed as % change from baseline.
Representative data are presented in Table 13 below, in which “Duration of action” indicates the last time point for which an effect on BP was still observed (n=2 animals/peptide)

Compound: CCC[C@H](NC(=O)[C@H](CC(N)=O)NC(=O)[C@@H](NC(=O)[C@H](CCC(=O)O)NC(=O)[C@H](C)NC(=O)[C@H](CCC(N)=O)NC(=O)[C@H](CCC(=O)O)NC(=O)[C@H](CCCNC(=N)N)NC(=O)[C@H](CCC(N)=O)NC(=O)[C@H](CCCCN)NC(=O)[C@H](CCCCN)NC(=O)[C@H](CCC(N)=O)NC(=O)[C@H](CCCCN)NC(=O)[C@H](CCC(=O)O)NC(=O)[C@H](CCC(N)=O)NC(=O)[C@H](CCC(=O)O)NC(=O)[C@H](CC(C)C)NC(=O)[C@H](CC(C)C)NC(=O)[C@@H](NC(=O)[C@H](CCCCN)NC(=O)[C@H](CCCCNC(=O)CC[C@H](NC(=O)CCCCCCCCCCCCCCC(=O)O)C(=O)O)NC(=O)[C@H](CC(C)C)NC(=O)[C@H](CCCCN)NC(=O)[C@@H](NC(=O)[C@@H]1CCCN1C(=O)[C@H](NC(=O)[C@H](CC(=O)O)NC(=O)[C@H](CC(C)C)NC(=O)[C@H](CO)NC(=O)[C@H](CC(C)C)NC(=O)[C@@H](NC(=O)[C@@H](NC(C)=O)[C@@H](C)CC)C(C)C)C(C)C)[C@@H](C)CC)[C@@H](C)CC)[C@@H](C)O)C(=O)N[C@@H](CCC(N)=O)C(=O)N[C@H](C(=O)N[C@@H](CC(C)C)C(=O)N[C@@H](C)C(=O)N[C@@H](CCC(N)=O)C(=O)N[C@H](C(N)=O)C(C)C)[C@@H](C)CC [compound 52] (Ac-IVLSLD[dV]PIKLK([γGlu-C16 diacid])KILLEQEKQKKQREQAETN[Nva]QILAQV-NH2)
- EC50 (human CRF2a receptor): 0.17 nM
- Emax (% I) (CFR1R receptor): 7 % I
- EC50 (CFR1R receptor): > 250 nM
- Systolic blood pressure (Mean) % change from baseline, 8 h (Sprague Dawley rats): −28%
- Systolic blood pressure (Mean) % change from baseline, 12 h (Sprague Dawley rats): −17%
- Systolic blood pressure (Mean) % change from baseline, 24 h (Sprague Dawley rats): 4%
- Duration of action (Sprague Dawley rats): 23 h

Compound: CC[C@H](C)[C@H](NC(C)=O)C(=O)N[C@H](C(=O)N[C@@H](CC(C)C)C(=O)N[C@@H](CO)C(=O)N[C@@H](CC(C)C)C(=O)N[C@@H](CC(=O)O)C(=O)N[C@@H](C(=O)N1CCC[C@H]1C(=O)N[C@H](C(=O)N[C@@H](CCCCN)C(=O)N[C@@H](CC(C)C)C(=O)N[C@@H](CCCCNC(=O)COCCOCCNC(=O)CC[C@H](NC(=O)CCCCCCCCCCCCCCCCCCC(=O)O)C(=O)O)C(=O)N[C@@H](CCCCN)C(=O)N[C@H](C(=O)N[C@@H](CC(C)C)C(=O)N[C@@H](CC(C)C)C(=O)N[C@@H](CCC(=O)O)C(=O)N[C@@H](CCC(N)=O)C(=O)N[C@@H](CCC(=O)O)C(=O)N[C@@H](CCCCN)C(=O)N[C@@H](CCC(N)=O)C(=O)N[C@@H](CCCCN)C(=O)N[C@@H](CCCCN)C(=O)N[C@@H](CCC(N)=O)C(=O)N[C@@H](CCCNC(=N)N)C(=O)N[C@@H](CCC(=O)O)C(=O)N[C@@H](CCC(N)=O)C(=O)N[C@@H](C)C(=O)N[C@@H](CCC(=O)O)C(=O)N[C@H](C(=O)N[C@@H](CC(N)=O)C(=O)NC(C)(C)C(=O)N[C@@H](CCC(N)=O)C(=O)N[C@H](C(=O)N[C@@H](CC(C)C)C(=O)N[C@@H](C)C(=O)N[C@@H](CCC(N)=O)C(=O)N[C@H](C(N)=O)C(C)C)[C@@H](C)CC)[C@@H](C)O)[C@@H](C)CC)[C@@H](C)CC)C(C)C)C(C)C [compound 230] (Ac-IVLSLD[dV]PIKLK([AEEA-γGlu-C20 diacid])KILLEQEKQKKQREQAETN[Aib]QILAQV-NH2)
- EC50 (human CRF2a receptor): 0.16 nM
- Emax (% I) (CFR1R receptor): 30 % I
- EC50 (CFR1R receptor): > 250 nM
- Systolic blood pressure (Mean) % change from baseline, 8 h (Sprague Dawley rats): −15%
- Systolic blood pressure (Mean) % change from baseline, 12 h (Sprague Dawley rats): −16%
- Systolic blood pressure (Mean) % change from baseline, 24 h (Sprague Dawley rats): 3%
- Duration of action (Sprague Dawley rats): 23 h

Compound: CC[C@H](C)[C@H](NC(C)=O)C(=O)N[C@H](C(=O)N[C@@H](CC(C)C)C(=O)N[C@@H](CO)C(=O)N[C@@H](CC(C)C)C(=O)N[C@@H](CC(=O)O)C(=O)N[C@@H](C(=O)N1CCC[C@H]1C(=O)N[C@H](C(=O)N[C@@H](CCCCN)C(=O)N[C@@H](CC(C)C)C(=O)N[C@@H](CCCCNC(=O)CC[C@H](NC(=O)CCCCCCCCCCCCCCC(=O)O)C(=O)O)C(=O)N[C@@H](CCCCN)C(=O)N[C@H](C(=O)N[C@@H](CC(C)C)C(=O)N[C@@H](CC(C)C)C(=O)N[C@@H](CCC(=O)O)C(=O)N[C@@H](CCC(N)=O)C(=O)N[C@@H](CCC(=O)O)C(=O)N[C@@H](CCCCN)C(=O)N[C@@H](CCC(N)=O)C(=O)N[C@@H](CCCCN)C(=O)N[C@@H](CCCCN)C(=O)N[C@@H](CCC(N)=O)C(=O)N[C@@H](CCCNC(=N)N)C(=O)N[C@@H](CCC(=O)O)C(=O)N[C@@H](CCC(N)=O)C(=O)N[C@@H](C)C(=O)N[C@@H](CCC(=O)O)C(=O)N[C@H](C(=O)N[C@@H](CC(N)=O)C(=O)N[C@@H](CCC(=O)O)C(=O)N[C@@H](CCC(N)=O)C(=O)N[C@H](C(=O)N[C@@H](CC(C)C)C(=O)N[C@@H](C)C(=O)N[C@@H](CCC(N)=O)C(=O)N[C@H](C(N)=O)C(C)C)[C@@H](C)CC)[C@@H](C)O)[C@@H](C)CC)[C@@H](C)CC)C(C)C)C(C)C [SEQ ID No. 56, reference compound] (Ac-IVLSLD[dV]PIKLK([γGlu-C16 diacid])KILLEQEKQKKQREQAETNEQILAQV-NH2)
- Emax (% I) (CFR1R receptor; listed as 10): 26 % I
- Systolic blood pressure (Mean) % change from baseline, 8 h (Sprague Dawley rats): −24%
- Systolic blood pressure (Mean) % change from baseline, 12 h (Sprague Dawley rats): −11%
- Systolic blood pressure (Mean) % change from baseline, 24 h (Sprague Dawley rats): 2%
- Duration of action (Sprague Dawley rats): 18 h

Compound: CC[C@H](C)[C@H](NC)C(=O)N[C@H](C(=O)N[C@@H](CC(C)C)C(=O)N[C@@H](CO)C(=O)N[C@@H](CC(C)C)C(=O)N[C@@H](CC(=O)O)C(=O)N[C@@H](C(=O)N1CCC[C@H]1C(=O)N[C@H](C(=O)N[C@@H](CCCCN)C(=O)N[C@@H](CC(C)C)C(=O)N[C@@H](CCCCNC(=O)CC[C@H](NC(=O)CCCCCCCCCCCCCCC(=O)O)C(=O)O)C(=O)N[C@@H](CCC(N)=O)C(=O)N[C@H](C(=O)N[C@@H](CC(C)C)C(=O)N[C@@H](CC(C)C)C(=O)N[C@@H](CCCCN)C(=O)N[C@@H](CCC(N)=O)C(=O)N[C@@H](CCC(=O)O)C(=O)N[C@@H](CCCNC(=N)N)C(=O)N[C@@H](CCC(N)=O)C(=O)N[C@@H](CCCCN)C(=O)N[C@@H](CCCCN)C(=O)N[C@@H](CCC(N)=O)C(=O)N[C@@H](CCCNC(=N)N)C(=O)N[C@@H](CCC(=O)O)C(=O)N[C@@H](CCC(N)=O)C(=O)N[C@@H](C)C(=O)N[C@@H](CCC(=O)O)C(=O)N[C@@H](CCCCN)C(=O)N[C@@H](CC(N)=O)C(=O)N[C@@H](CCCCN)C(=O)N[C@@H](CCC(N)=O)C(=O)N[C@H](C(=O)N[C@@H](CC(C)C)C(=O)N[C@@H](CCC(=O)O)C(=O)N[C@@H](CCC(N)=O)C(=O)N[C@H](C(N)=O)C(C)C)[C@@H](C)CC)[C@@H](C)CC)[C@@H](C)CC)C(C)C)C(C)C [SEQ ID No. 5, reference compound] (H-[NMeI]VLSLD[dV]PIKLK([γGlu-C16 diacid])QILLKQERQKKQREQAEKNKQILEQV-NH2)
- EC50 (human CRF2a receptor): 0.09 nM
- Emax (% I) (CFR1R receptor): 48 % I
